Laboratory results reported in patent US20090062388A1, “Use of acetyl L-carnitine for the preparation of a medication for the preventive therapy for pain” (Sigma-Tau Industrie Farmaceutiche Riunite S.p.A., priority 2001, published 2009).
Like-named read-outs stand apart in the source and are kept apart here.

What was measured:
[1] = system: mice; assay type: in vivo; conditions: Acetyl L-carnitine 100 mg/kg BID SC 7 days
Method: The analgesia induced by the acetyl L-carnitine (100 mg/kg BID, SC for 7 days) was determined in presence of some antagonists of some neurotransmission systems deeply involved in the regulation of pain threshold, and in particular the naloxone (opioid antagonist), the CGP-35348 (GABAB antagonist) and the alpha-methyl-p-tyrosine (inhibitor of the synthesis of cathecolamines).
In agreement with the standard procedures known by the person skilled in the art, the doses used for any antagonist were the minimum required to prevent the analgesia induced by morphine (7 mg/kg SC) (1, 100 e 200 mg/kg IP), baclofen (4 mg/kg SC) and amphetamine (1 mg/kg SC) (non-reported data) respectively.

[2] = system: Male Swiss Webster mice; assay: Abdominal constriction test (acetic acid IP); assay type: in vivo; conditions: for Number of constrictions (0.3% acetic acid) / Number of constrictions (0.6% acetic acid): 3 mg/ml in drinking water
Method: The second experiment was the abdominal constriction test.
The abdominal constriction test was carried out according to Koster et al. in Fed. Proc. 18: 412, 1959.
According to this test, an IP injection of 0.6% acetic acid solution is to be made 5 minutes before starting the observation, which lasted 10 minutes.
In some experiments, the percentage of acetic acid was reduced by half (0.3%).

[3] = system: Male Swiss Webster mice; assay: Kainic acid-induced hyperalgesia (hot plate); assay type: in vivo
Method: According to this test, the hyperalgesia—determined in the mice through the hot plate test—is induced by a solution of kainic acid (20 mg/kg, IP).

[4] = system: Male Swiss Webster mice; assay: Hot-plate test (thermal stimulus), licking latency; assay type: in vivo
Method: The first experiment was the hot-plate test.
Male Swiss Webster mice weighing between 22 and 30 g were used.
The test was carried out according to O'Callaghan and Holtzman in J. Pharmacol. Exp. Ther. 197: 533-537, 1976.
According to this test, a stainless steel container is to be placed in a bain-marie at a temperature of 52.5° C.
The mouse was removed from the hot plate immediately upon the first sign of painful stimulus. The maximum latency time registered on the hot plate was 45 seconds.
The values of analgesia were determined at 15 minute-intervals.

[5] = system: Male Swiss Webster mice; assay: Hyperalgesia induced by NMDA (hot plate); assay type: in vivo
Method: This test was carried out in compliance with what described in the rats by Davies and Inturrisi in J. Pharmacol. Exp. Ther., 289: 1048-1053, 1999, but was applied to the mice by us.
According to this test, the hyperalgesia, assessed through the hot plate test, is to be induced by intrathecal administration of an NMDA solution (1.64 μg/mouse; administered around 15 minutes after the last administration of acetyl L-carnitine).
The reduction in the pain threshold, which reaches its peak 15 minutes after the injection of NMDA, disappears within 30 minutes from the administration.

[6] = system: Male Swiss Webster mice; assay: Hyperalgesia induced by morphine withdrawal syndrome (hot plate)
[7] = solution 3 mg/ml in bottle for 7 and 14 days

Which results are given for CC(=O)O[C@H](CC(=O)[O-])C[N+](C)(C)C [Acetyl L-carnitine, acetyl L-carnitine]?
Hot plate Licking latency ([1]; pre-treat. Alpha-M-p-T 200 mg/kg, after treatment 15 min): 22.5 ± 2.0 s; Hot plate Licking latency ([1]; pre-treat. Alpha-M-p-T 200 mg/kg, after treatment 30 min): 21.5 ± 1.7 s; Hot plate Licking latency ([1]; pre-treat. Alpha-M-p-T 200 mg/kg, after treatment 45 min): 21.6 ± 1.5^ sec; Hot plate Licking latency ([1]; pre-treat. Alpha-M-p-T 200 mg/kg, before treatment): 22.0 ± 1.3 s; Hot plate Licking latency ([1]; pre-treat. Atropine 5 mg/kg, after treatment 15 min): 11.4 ± 1.7° sec; Hot plate Licking latency ([1]; pre-treat. Atropine 5 mg/kg, after treatment 30 min): 12.6 ± 1.9° sec; Hot plate Licking latency ([1]; pre-treat. Atropine 5 mg/kg, after treatment 45 min): 12.8 ± 1.3° sec; Hot plate Licking latency ([1]; pre-treat. Atropine 5 mg/kg, before treatment): 21.2 ± 1.0^ sec; Hot plate Licking latency ([1]; pre-treat. CGP 35348 100 mg/kg, after treatment 15 min): 21.1 ± 1.2^ sec; Hot plate Licking latency ([1]; pre-treat. CGP 35348 100 mg/kg, after treatment 30 min): 21.0 ± 2.1^ sec; Hot plate Licking latency ([1]; pre-treat. CGP 35348 100 mg/kg, after treatment 45 min): 20.3 ± 1.9^ sec; Hot plate Licking latency ([1]; pre-treat. CGP 35348 100 mg/kg, before treatment): 22.1 ± 0.7 s; Hot plate Licking latency ([1]; pre-treat. HC-3 1 μg ICV, after treatment 15 min): 14.6 ± 1.3° sec; Hot plate Licking latency ([1]; pre-treat. HC-3 1 μg ICV, after treatment 30 min): 14.0 ± 1.8° sec; Hot plate Licking latency ([1]; pre-treat. HC-3 1 μg ICV, after treatment 45 min): 15.5 ± 1.9° sec; Hot plate Licking latency ([1]; pre-treat. HC-3 1 μg ICV, before treatment): 22.0 ± 1.1^ sec; Hot plate Licking latency ([1]; pre-treat. Naloxone 1 mg/kg, after treatment 15 min): 22.3 ± 1.9 s; Hot plate Licking latency ([1]; pre-treat. Naloxone 1 mg/kg, after treatment 30 min): 22.1 ± 2.0 s; Hot plate Licking latency ([1]; pre-treat. Naloxone 1 mg/kg, after treatment 45 min): 20.6 ± 1.2^ sec; Hot plate Licking latency ([1]; pre-treat. Naloxone 1 mg/kg, before treatment): 22.6 ± 0.6 s; Hot plate Licking latency ([1]; pre-treat. Pirenzepine 0.1 μg ICV, after treatment 15 min): 16.5 ± 1.8° sec; Hot plate Licking latency ([1]; pre-treat. Pirenzepine 0.1 μg ICV, after treatment 30 min): 14.3 ± 2.0° sec; Hot plate Licking latency ([1]; pre-treat. Pirenzepine 0.1 μg ICV, after treatment 45 min): 17.1 ± 1.6° sec; Hot plate Licking latency ([1]; pre-treat. Pirenzepine 0.1 μg ICV, before treatment): 21.6 ± 1.3^ sec; Hot plate Licking latency ([1]; pre-treat. S-(−)-ET-126 0.1 μg ICV, after treatment 15 min): 15.8 ± 2.2° sec; Hot plate Licking latency ([1]; pre-treat. S-(−)-ET-126 0.1 μg ICV, after treatment 30 min): 16.9 ± 2.3° sec; Hot plate Licking latency ([1]; pre-treat. S-(−)-ET-126 0.1 μg ICV, after treatment 45 min): 15.8 ± 1.8° sec; Hot plate Licking latency ([1]; pre-treat. S-(−)-ET-126 0.1 μg ICV, before treatment): 22.9 ± 1.3^ sec; Hot plate Licking latency ([1]; pre-treat. physiological solution 10 ml/kg, after treatment 15 min): 22.6 ± 1.3 s; Hot plate Licking latency ([1]; pre-treat. physiological solution 10 ml/kg, after treatment 30 min): 22.5 ± 1.3 s; Hot plate Licking latency ([1]; pre-treat. physiological solution 10 ml/kg, after treatment 45 min): 22.9 ± 1.6^ sec; Hot plate Licking latency ([1]; pre-treat. physiological solution 10 ml/kg, before treatment): 21.8 ± 1.1 s; Number of constrictions (0.3% acetic acid) ([2]; sub-chronic treatment 7 days): 12.7 ± 3.5; Number of constrictions (0.6% acetic acid) ([2]; sub-chronic treatment 7 days): 31.5 ± 4.0; Number of constrictions (0.3% acetic acid) ([2]; sub-chronic treatment 14 days): 11.9 ± 2.2; Number of constrictions (0.6% acetic acid) ([2]; sub-chronic treatment 14 days): 28.3 ± 5.1; antinociceptive effect, abdominal constriction test ([2]; 0.6% acetic acid, 30 mg/kg IP (or SC), 18-day treatment (FIG. 3)): had no effect; antinociceptive effect, abdominal constriction test ([2]; 0.6% acetic acid, 100 mg/kg BID, SC or IP, 14 days of treatment (FIG. 1)): exerted an antinociceptive effect; antinociceptive effect, abdominal constriction test ([2]; 0.6% acetic acid, 100 mg/kg acute administration (SC or IP) or repeated for 7 days (FIG. 1)): had no effect at all; antinociceptive effect, abdominal constriction test ([2]; small concentration of acid, 30 mg/kg, 14 days (FIG. 4)): the statistic significance was obtained after 14 days; pain threshold in abdominal constriction test (0.3 and 0.6%) [2, 7]: no increase in the pain threshold was observed; reversal of kainic acid-induced hyperalgesia ([3]; 7-day repeated administration started 48 hours after kainic acid 20 mg/kg IP (FIG. 6)): capable to revert the hyperalgesia; reversal of kainic acid-induced hyperalgesia ([3]; single administration (FIG. 6bis)): no anti-hyperalgesic effect; Hot plate Licking latency ([4]; 3 mg/ml in drinking water, after 7 days treatment): 17.8 ± 2.3 s; Hot plate Licking latency ([4]; 3 mg/ml in drinking water, after 14 days treatment): 18.8 ± 2.5 s; Hot plate Licking latency ([4]; 3 mg/ml in drinking water, before treatment): 13.8 ± 0.8 s; analgesic effect in hot-plate test ([4]; 30 mg/kg SC, acute and 30 mg/kg BID SC for 7 days): had no analgesic effect; antinociceptive effect in hot-plate test ([4]; 100 mg/kg BID SC for 7 days): statistically significant antinociceptive effect; antinociceptive effect in hot-plate test ([4]; 100 mg/kg BID administered for 14 days): the test failed to be statistically significant; pain threshold in hot-plate test ([4]; 1-8 hours from one single administration of 100 mg/kg SC): did not affect the pain threshold; Hot plate Licking latency ([4]; 7-day sub-chronic treatment SC 30 mg/kg BID, 15 min after treatment): 16.3 ± 2.1 s; Hot plate Licking latency ([4]; 7-day sub-chronic treatment SC 30 mg/kg BID, 30 min after treatment): 17.3 ± 1.9 s; Hot plate Licking latency ([4]; 7-day sub-chronic treatment SC 30 mg/kg BID, 45 min after treatment): 15.2 ± 1.5 s; Hot plate Licking latency ([4]; 7-day sub-chronic treatment SC 30 mg/kg BID, before treatment): 15.8 ± 1.3 s; Hot plate Licking latency ([4]; 7-day sub-chronic treatment SC 100 mg/kg BID, 15 min after treatment): 22.1 ± 1.8^ sec; Hot plate Licking latency ([4]; 7-day sub-chronic treatment SC 100 mg/kg BID, 30 min after treatment): 22.5 ± 1.9^ sec; Hot plate Licking latency ([4]; 7-day sub-chronic treatment SC 100 mg/kg BID, 45 min after treatment): 22.2 ± 1.7^ sec; Hot plate Licking latency ([4]; 7-day sub-chronic treatment SC 100 mg/kg BID, before treatment): 21.8 ± 1.1^ sec; Hot plate Licking latency ([4]; 14-day sub-chronic treatment SC 100 mg/kg BID, 15 min after treatment): 22.1 ± 2.7 s; Hot plate Licking latency ([4]; 14-day sub-chronic treatment SC 100 mg/kg BID, 30 min after treatment): 22.5 ± 2.1 s; Hot plate Licking latency ([4]; 14-day sub-chronic treatment SC 100 mg/kg BID, 45 min after treatment): 23.4 ± 2.9 s; Hot plate Licking latency ([4]; 14-day sub-chronic treatment SC 100 mg/kg BID, before treatment): 22.4 ± 1.4 s; Hot plate Licking latency ([4]; 7 days after the end of the 14-day-treatment 100 mg/kg BID, 15 min after treatment): 21.1 ± 1.9^ sec; Hot plate Licking latency ([4]; 7 days after the end of the 14-day-treatment 100 mg/kg BID, 30 min after treatment): 18.5 ± 1.8 s; Hot plate Licking latency ([4]; 7 days after the end of the 14-day-treatment 100 mg/kg BID, 45 min after treatment): 19.0 ± 2.3 s; Hot plate Licking latency ([4]; 7 days after the end of the 14-day-treatment 100 mg/kg BID, before treatment): 19.2 ± 1.6^ sec; antinociceptive action in hot-plate test ([4]; 7 days after the last 14 day-series of injections, 100 mg/kg BID SC): persisted even 7 days after the last 14 day-series of injections; Hot plate Licking latency ([4]; Acute SC treatment 100 mg/kg, 15 min after treatment): 17.3 ± 1.7 s; Hot plate Licking latency ([4]; Acute SC treatment 100 mg/kg, 30 min after treatment): 16.8 ± 1.2 s; Hot plate Licking latency ([4]; Acute SC treatment 100 mg/kg, 45 min after treatment): 15.2 ± 1.7 s; Hot plate Licking latency ([4]; Acute SC treatment 100 mg/kg, before treatment): 13.9 ± 0.7 s; Hot plate Licking latency ([4]; SC acute treatment 30 mg/kg, 15 min after treatment): 15.8 ± 1.8 s; Hot plate Licking latency ([4]; SC acute treatment 30 mg/kg, 30 min after treatment): 16.5 ± 2.0 s; Hot plate Licking latency ([4]; SC acute treatment 30 mg/kg, 45 min after treatment): 15.0 ± 2.1 s; Hot plate Licking latency ([4]; SC acute treatment 30 mg/kg, before treatment): 14.2 ± 0.9 s; protective effect in hot-plate test ([4]; acute SC administration 100 mg/kg): did not exert any protective effect; Hot plate Licking latency ([4]; single SC treatment 100 mg/kg, 1 h after treatment): 15.8 ± 2.2 s; Hot plate Licking latency ([4]; single SC treatment 100 mg/kg, 2 h after treatment): 14.7 ± 1.5 s; Hot plate Licking latency ([4]; single SC treatment 100 mg/kg, 3 h after treatment): 15.6 ± 1.9 s; Hot plate Licking latency ([4]; single SC treatment 100 mg/kg, 4 h after treatment): 14.1 ± 2.0 s; Hot plate Licking latency ([4]; single SC treatment 100 mg/kg, 6 h after treatment): 15.2 ± 1.9 s; Hot plate Licking latency ([4]; single SC treatment 100 mg/kg, 8 h after treatment): 14.9 ± 1.6 s; Hot plate Licking latency ([4]; single SC treatment 100 mg/kg, before treatment): 14.5 ± 0.9 s; pain threshold in hot-plate test [4, 7]: no increase in the pain threshold was observed; effect on reduction in pain threshold induced by NMDA ([5]; 30 mg/kg BID, IP or SC for 7 days (FIG. 7)): not found to be active; effect on reduction in pain threshold induced by NMDA ([5]; 100 mg/kg BID, SC or IP for 7 days, NMDA 1.64 μg/mouse intrathecal (FIG. 7)): anti-nociceptive effect; reversal of hyperalgesia induced by morphine withdrawal syndrome ([6]; one single administration, 5 hours and 30 minutes from replacement of morphine with water (FIG. 5bis)): not after one single administration; reversal of hyperalgesia induced by morphine withdrawal syndrome ([6]; repeated treatment 100 mg/kg BID, IP or SC for 7 days (FIG. 5)): capable of reverting the hyperalgesia
